Structures are written as SMILES. pEC50: −log10 of the molar value.

This note sets out measurements from patent US10913727B2, “Modulators of the integrated stress pathway” (Calico Life Sciences LLC, priority 2016, dated 2021).

The test has as its system HEK293T cells carrying the ATF4 luciferase reporter. Nature of the test: ATF4-Luc assay, in vitro model of Vanishing Cell White Matter Disease (VWMD). Type of test: cell-based. The conditions noted are these: Homo sapiens, HEK-293T, 1 μg/mL tunicamycin, 7 hours, One Glo luminescence. In a few lines: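 Reporter cells were stably generated by retroviral transduction and puromycin selection, then seeded at 30,000 cells/well. Next day, cells received 1 μg/mL tunicamycin with 200 nM test compound for 7 h, and luciferase luminescence was read with a one-step reagent. Values reported as EC50.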
Turning to `Cn1cc(C(=O)NC23CC(NC(=O)COc4ccc(Cl)c(F)c4)(C2)C3)c(C(F)(F)F)n1` [Compound 868, N-{3-[2-(4-chloro-3-fluorophenoxy)acetamido]bicyclo[1.1.1]pentan-1-yl}-1-methyl-3-(trifluoromethyl)-1H-pyrazole-4-carboxamide], the pEC50 is less than 5.70.
As to `Cc1ncoc1C(=O)NC12CC(NC(=O)COc3ccc(Cl)c(F)c3)(C1)C2` [Compound 869, N-{3-[2-(4-chloro-3-fluorophenoxy)acetamido]bicyclo[1.1.1]pentan-1-yl}-4-methyl-1,3-oxazole-5-carboxamide], the negative logarithm of the EC50 (pEC50) was less than 5.70.
To `CC(=O)Nc1nc(C(=O)NC23CC(NC(=O)COc4ccc(Cl)c(F)c4)(C2)C3)cs1` [Compound 870, 2-acetamido-N-{3-[2-(4-chloro-3-fluorophenoxy)acetamido]bicyclo[1.1.1]pentan-1-yl}-1,3-thiazole-4-carboxamide] belongs less than 5.70; to `Cn1cc(Cl)c(C(=O)NC23CC(NC(=O)COc4ccc(Cl)c(F)c4)(C2)C3)n1` [Compound 871, 4-chloro-N-{3-[2-(4-chloro-3-fluorophenoxy)acetamido]bicyclo[1.1.1]pentan-1-yl}-1-methyl-1H-pyrazole-3-carboxamide], 6.00 to 6.60.
The result for `COc1nc(C)c(C(=O)NC23CC(NC(=O)COc4ccc(Cl)c(F)c4)(C2)C3)s1` [Compound 872, N-{3-[2-(4-chloro-3-fluorophenoxy)acetamido]bicyclo[1.1.1]pentan-1-yl}-2-methoxy-4-methyl-1,3-thiazole-5-carboxamide] reads 6.60 to 7.30; that for `O=C(COc1ccc(Cl)c(F)c1)NC12CC(NC(=O)c3scc4c3OCCO4)(C1)C2` [Compound 873, N-{3-[2-(4-chloro-3-fluorophenoxy)acetamido]bicyclo[1.1.1]pentan-1-yl}-2,3-dihydrothieno[3,4-b][1,4]dioxine-5-carboxamide], less than 5.70; that for `Cn1ncc(C(=O)NC23CC(NC(=O)COc4ccc(Cl)c(F)c4)(C2)C3)c1C(F)(F)F` [Compound 874, N-{3-[2-(4-chloro-3-fluorophenoxy)acetamido]bicyclo[1.1.1]pentan-1-yl}-1-methyl-5-(trifluoromethyl)-1H-pyrazole-4-carboxamide], less than 5.70.
To `Cc1csc(C(=O)NC23CC(NC(=O)COc4ccc(Cl)c(F)c4)(C2)C3)c1` [Compound 875, N-{3-[2-(4-chloro-3-fluorophenoxy)acetamido]bicyclo[1.1.1]pentan-1-yl}-4-methylthiophene-2-carboxamide] belongs greater than 7.30.
With `CC(=O)Nc1sccc1C(=O)NC12CC(NC(=O)COc3ccc(Cl)c(F)c3)(C1)C2` [Compound 876, 2-acetamido-N-{3-[2-(4-chloro-3-fluorophenoxy)acetamido]bicyclo[1.1.1]pentan-1-yl}thiophene-3-carboxamide], the pEC50 is 6.00 to 6.60.
To `Cn1nc(C(=O)NC23CC(NC(=O)COc4ccc(Cl)c(F)c4)(C2)C3)c2c1CCC2` [Compound 877, N-{3-[2-(4-chloro-3-fluorophenoxy)acetamido]bicyclo[1.1.1]pentan-1-yl}-1-methyl-1,4,5,6-tetrahydrocyclopenta[c]pyrazole-3-carboxamide] belongs less than 5.70; to `Cc1nn(C)c2sc(C(=O)NC34CC(NC(=O)COc5ccc(Cl)c(F)c5)(C3)C4)cc12` [Compound 878, N-{3-[2-(4-chloro-3-fluorophenoxy)acetamido]bicyclo[1.1.1]pentan-1-yl}-1,3-dimethyl-1H-thieno[2,3-c]pyrazole-5-carboxamide], 6.00 to 6.60; to `Cc1nocc1C(=O)NC12CC(NC(=O)COc3ccc(Cl)c(F)c3)(C1)C2` [Compound 879, N-{3-[2-(4-chloro-3-fluorophenoxy)acetamido]bicyclo[1.1.1]pentan-1-yl}-3-methyl-1,2-oxazole-4-carboxamide], less than 5.70.
The result for `O=C(COc1ccc(Cl)c(F)c1)NC12CC(NC(=O)c3noc4c3CCCC4)(C1)C2` [Compound 880, N-{3-[2-(4-chloro-3-fluorophenoxy)acetamido]bicyclo[1.1.1]pentan-1-yl}-4,5,6,7-tetrahydro-1,2-benzoxazole-3-carboxamide] reads less than 5.70; that for `Cc1oc(C2CC2)cc1C(=O)NC12CC(NC(=O)COc3ccc(Cl)c(F)c3)(C1)C2` [Compound 881, N-{3-[2-(4-chloro-3-fluorophenoxy)acetamido]bicyclo[1.1.1]pentan-1-yl}-5-cyclopropyl-2-methylfuran-3-carboxamide], less than 5.70.
The result for `Cc1c(C(=O)NC23CC(NC(=O)COc4ccc(Cl)c(F)c4)(C2)C3)cnn1C` [Compound 882, N-{3-[2-(4-chloro-3-fluorophenoxy)acetamido]bicyclo[1.1.1]pentan-1-yl}-1,5-dimethyl-1H-pyrazole-4-carboxamide] reads less than 5.70.
`Cc1nccn1-c1ccccc1C(=O)NC12CC(NC(=O)COc3ccc(Cl)c(F)c3)(C1)C2` [Compound 883, N-{3-[2-(4-chloro-3-fluorophenoxy)acetamido]bicyclo[1.1.1]pentan-1-yl}-2-(2-methyl-1H-imidazol-1-yl)benzamide]: the pEC50 was less than 5.70.
The result for `CC(=O)Nc1cccc(C(=O)NC23CC(NC(=O)COc4ccc(Cl)c(F)c4)(C2)C3)n1` [Compound 884, 6-acetamido-N-{3-[2-(4-chloro-3-fluorophenoxy)acetamido]bicyclo[1.1.1]pentan-1-yl}pyridine-2-carboxamide] reads 6.00 to 6.60; that for `N#Cc1ccc(C(=O)NC23CC(NC(=O)COc4ccc(Cl)c(F)c4)(C2)C3)s1` [Compound 885, N-{3-[2-(4-chloro-3-fluorophenoxy)acetamido]bicyclo[1.1.1]pentan-1-yl}-5-cyanothiophene-2-carboxamide], less than 5.70.
For `O=C(COc1ccc(Cl)c(F)c1)NC12CC(NC(=O)c3cc4nccnc4s3)(C1)C2` [Compound 886, N-{3-[2-(4-chloro-3-fluorophenoxy)acetamido]bicyclo[1.1.1]pentan-1-yl}thieno[2,3-b]pyrazine-6-carboxamide], the pEC50 is 6.00 to 6.60.
The result for `COCC(=O)Nc1ccccc1C(=O)NC12CC(NC(=O)COc3ccc(Cl)c(F)c3)(C1)C2` [Compound 887, N-{3-[2-(4-chloro-3-fluorophenoxy)acetamido]bicyclo[1.1.1]pentan-1-yl}-2-(2-methoxyacetamido)benzamide] reads 6.00 to 6.60; that for `O=C(COc1ccc(Cl)c(F)c1)NC12CC(NC(=O)c3cnc(C4CC4)nc3)(C1)C2` [Compound 888, N-{3-[2-(4-chloro-3-fluorophenoxy)acetamido]bicyclo[1.1.1]pentan-1-yl}-2-cyclopropylpyrimidine-5-carboxamide], 6.60 to 7.30; that for `Cc1cc(C)nc(C(=O)NC23CC(NC(=O)COc4ccc(Cl)c(F)c4)(C2)C3)c1` [Compound 889, N-{3-[2-(4-chloro-3-fluorophenoxy)acetamido]bicyclo[1.1.1]pentan-1-yl}-4,6-dimethylpyridine-2-carboxamide], 5.70 to 6.00.
To `O=C(COc1ccc(Cl)c(F)c1)NC12CC(NC(=O)c3ccccc3Cn3cccn3)(C1)C2` [Compound 890, N-{3-[2-(4-chloro-3-fluorophenoxy)acetamido]bicyclo[1.1.1]pentan-1-yl}-2-[(1H-pyrazol-1-yl)methyl]benzamide] belongs less than 5.70.
The result for `Cc1cccc(C(=O)NC23CC(NC(=O)COc4ccc(Cl)c(F)c4)(C2)C3)n1` [Compound 891, N-{3-[2-(4-chloro-3-fluorophenoxy)acetamido]bicyclo[1.1.1]pentan-1-yl}-6-methylpyridine-2-carboxamide] reads 6.60 to 7.30; that for `O=C(COc1ccc(Cl)c(F)c1)NC12CC(NC(=O)c3cccc(Cn4cncn4)c3)(C1)C2` [Compound 892, N-{3-[2-(4-chloro-3-fluorophenoxy)acetamido]bicyclo[1.1.1]pentan-1-yl}-3-[(1H-1,2,4-triazol-1-yl)methyl]benzamide], 6.00 to 6.60; that for `CC(C)c1nnsc1C(=O)NC12CC(NC(=O)COc3ccc(Cl)c(F)c3)(C1)C2` [Compound 893, N-{3-[2-(4-chloro-3-fluorophenoxy)acetamido]bicyclo[1.1.1]pentan-1-yl}-4-(propan-2-yl)-1,2,3-thiadiazole-5-carboxamide], 5.70 to 6.00.
`O=C(COc1ccc(Cl)c(F)c1)NC12CC(NC(=O)c3cncc(N4CCOCC4)n3)(C1)C2` [Compound 894, N-{3-[2-(4-chloro-3-fluorophenoxy)acetamido]bicyclo[1.1.1]pentan-1-yl}-6-(morpholin-4-yl)pyrazine-2-carboxamide]: the negative logarithm of the EC50 (pEC50) is 6.00 to 6.60.
The result for `O=C(COc1ccc(Cl)c(F)c1)NC12CC(NC(=O)c3cnsn3)(C1)C2` [Compound 895, N-{3-[2-(4-chloro-3-fluorophenoxy)acetamido]bicyclo[1.1.1]pentan-1-yl}-1,2,5-thiadiazole-3-carboxamide] reads 6.00 to 6.60; that for `Cn1nc2ccccc2c1C(=O)NC12CC(NC(=O)COc3ccc(Cl)c(F)c3)(C1)C2` [Compound 896, N-{3-[2-(4-chloro-3-fluorophenoxy)acetamido]bicyclo[1.1.1]pentan-1-yl}-2-methyl-2H-indazole-3-carboxamide], 5.70 to 6.00.
Regarding `CSc1sc(C(=O)NC23CC(NC(=O)COc4ccc(Cl)c(F)c4)(C2)C3)cc1C#N` [Compound 897, N-{3-[2-(4-chloro-3-fluorophenoxy)acetamido]bicyclo[1.1.1]pentan-1-yl}-4-cyano-5-(methylsulfanyl)thiophene-2-carboxamide], the pEC50 was less than 5.70.
For the compound `CCSc1cncc(C(=O)NC23CC(NC(=O)COc4ccc(Cl)c(F)c4)(C2)C3)n1` [Compound 898, N-{3-[2-(4-chloro-3-fluorophenoxy)acetamido]bicyclo[1.1.1]pentan-1-yl}-6-(ethylsulfanyl)pyrazine-2-carboxamide], the pEC50 is 6.60 to 7.30.
The result for `O=C(COc1ccc(Cl)c(F)c1)NC12CC(NC(=O)c3ncccc3Cl)(C1)C2` [Compound 899, 3-chloro-N-{3-[2-(4-chloro-3-fluorophenoxy)acetamido]bicyclo[1.1.1]pentan-1-yl}pyridine-2-carboxamide] reads 6.00 to 6.60.
